Target: T1, Axl (Homo sapiens, UniProt P30530)
T1 construct: endogenous in cells; host or cells: HeLa cells
T1 sequence (P30530 26-894): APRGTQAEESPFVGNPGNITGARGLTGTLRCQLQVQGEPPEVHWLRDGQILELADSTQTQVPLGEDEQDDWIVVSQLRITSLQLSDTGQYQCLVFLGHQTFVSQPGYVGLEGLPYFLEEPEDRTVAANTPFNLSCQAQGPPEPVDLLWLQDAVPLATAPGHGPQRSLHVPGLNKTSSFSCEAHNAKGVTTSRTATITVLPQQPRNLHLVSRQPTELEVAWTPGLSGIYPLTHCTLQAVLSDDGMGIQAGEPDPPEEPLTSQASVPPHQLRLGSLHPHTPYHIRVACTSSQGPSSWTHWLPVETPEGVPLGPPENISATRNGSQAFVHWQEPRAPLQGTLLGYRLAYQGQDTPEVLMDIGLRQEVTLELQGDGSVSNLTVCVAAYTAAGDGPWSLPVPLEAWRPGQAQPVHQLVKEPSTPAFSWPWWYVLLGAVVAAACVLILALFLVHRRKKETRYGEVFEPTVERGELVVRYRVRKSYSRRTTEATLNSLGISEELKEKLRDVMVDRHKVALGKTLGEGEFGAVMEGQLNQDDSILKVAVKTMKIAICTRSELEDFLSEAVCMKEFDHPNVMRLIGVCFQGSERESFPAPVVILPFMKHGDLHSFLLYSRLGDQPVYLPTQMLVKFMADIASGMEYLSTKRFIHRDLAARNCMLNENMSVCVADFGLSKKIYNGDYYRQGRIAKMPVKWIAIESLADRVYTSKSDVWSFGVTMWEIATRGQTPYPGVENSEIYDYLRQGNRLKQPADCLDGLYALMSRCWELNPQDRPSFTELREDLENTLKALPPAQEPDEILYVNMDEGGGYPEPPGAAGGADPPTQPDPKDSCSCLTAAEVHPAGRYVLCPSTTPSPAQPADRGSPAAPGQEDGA
Experiment: Phospho-Akt in-cell Western assay (inhibition of Axl activity)
Format: cell-based
Summary of the method: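 HeLa cells on poly-L-lysine, starved 24 h in 0.5% FCS DMEM with Axl/Fc 500 ng/mL, pre-treated with compound 1 h at 37° C. Axl stimulated 5 min by anti-Axl/anti-mouse antibody cross-linking. Fixed cells probed with anti-phospho-Akt and HRP secondary, chemiluminescence read.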

[1] = inhibition of Axl activity, phospho-Akt in-cell Western assay, Table 1
[2] = Table 3, Hela cells, Axl antibody cross-linking stimulation, phospho-Akt chemiluminescence
[3] = Table 4, Hela cells, Axl antibody cross-linking stimulation, phospho-Akt chemiluminescence
[4] = Table 6, Hela cells, Axl antibody cross-linking stimulation, phospho-Akt chemiluminescence
[5] = Table 5, Hela cells, Axl antibody cross-linking stimulation, phospho-Akt chemiluminescence

COc1ccc(C(=O)n2nc(Nc3ccc(OCCN4CCCC4)cc3)nc2N)cc1F [compound 381, 5-amino-1-(3-fluoro-4-methoxyphenyl)carbonyl-3-[4-[2-(pyrrolidin-1-yl)ethoxy]phenylamino]-1H-1,2,4-triazole]
IC50 [1]: < 1000 nM

Nc1nc(Nc2ccc(OCCN3CCCC3)cc2)nn1C(=O)c1ccc(N2CCOCC2)cc1 [compound 382, 5-amino-1-(4-(morpholin-4-yl)phenyl)carbonyl-3-[4-[2-(pyrrolidin-1-yl)ethoxy]phenylamino]-1H-1,2,4-triazole]
IC50 [1]: < 1000 nM

CN1CCN(c2ccc(C(=O)n3nc(Nc4ccc(OCCN5CCCC5)cc4)nc3N)cc2)CC1 [compound 383, 5-amino-1-(4-(4-methylpiperazin-1-yl)phenyl)carbonyl-3-[4-[2-(pyrrolidin-1-yl)ethoxy]phenylamino]-1H-1,2,4-triazole]
IC50 [1]: < 1000 nM

CC(C)(C)Oc1ccc(C(=O)n2nc(Nc3ccc(OCCN4CC[C@H](F)C4)cc3)nc2N)cc1 [compound 384, 5-amino-1-(4-(tert-butoxy)phenyl)carbonyl-3-[4-[2-((S)-3-fluoropyrrolidin-1-yl)ethoxy]phenylamino]-1H-1,2,4-triazole]
IC50 [1]: < 1000 nM

CN(C)c1ccc(C(=O)n2nc(Nc3ccc(OCCN4CC[C@H](F)C4)cc3)nc2N)cc1 [compound 385, 5-amino-1-(4-(dimethylamino)phenyl)carbonyl-3-[4-[2-((S)-3-fluoropyrrolidin-1-yl)ethoxy]phenylamino]-1H-1,2,4-triazole]
IC50 [1]: < 1000 nM

Nc1nc(Nc2ccc(OCCN3CC[C@H](F)C3)cc2)nn1C(=O)c1ccc2c(c1)OCCO2 [compound 386, 5-amino-1-(1,4-benzodioxan-6-yl)carbonyl-3-[4-[2-((S)-3-fluoropyrrolidin-1-yl)ethoxy]phenylamino]-1H-1,2,4-triazole]
IC50 [2]: < 1000 nM

Nc1nc(Nc2ccc(OCCN3CC[C@H](F)C3)cc2)n(C(=O)c2ccc3c(c2)OCCO3)n1 [compound 387, 3-amino-1-(1,4-benzodioxan-6-yl)carbonyl-5-[4-[2-((S)-3-fluoropyrrolidin-1-yl)ethoxy]phenylamino]-1H-1,2,4-triazole]
IC50 [3]: < 1000 nM

Nc1nc(Nc2ccc(OCCN3CC[C@H](F)C3)cc2)nn1C(=O)c1ccc2cc[nH]c2c1 [compound 388, 5-amino-1-(1H-indol-6-yl)carbonyl-3-[4-[2-((S)-3-fluoropyrrolidin-1-yl)ethoxy]phenylamino]-1H-1,2,4-triazole]
IC50 [2]: < 1000 nM

Nc1nc(Nc2ccc(OCCN3CC[C@H](F)C3)cc2)n(C(=O)c2ccc3cc[nH]c3c2)n1 [compound 389, 3-amino-1-(1H-indol-6-yl)carbonyl-5-[4-[2-((S)-3-fluoropyrrolidin-1-yl)ethoxy]phenylamino]-1H-1,2,4-triazole]
IC50 [3]: < 1000 nM

COc1c(F)cc(C(=O)n2nc(Nc3ccc(OCCN4CCCC4)cc3)nc2N)cc1F [compound 390, 5-amino-1-(3,5-difluoro-4-methoxyphenyl)carbonyl-3-[4-[2-(pyrrolidin-1-yl)ethoxy]phenylamino]-1H-1,2,4-triazole]
IC50 [1]: < 1000 nM

CS(=O)(=O)N1CCC(Nc2nc(N)nn2C(=O)c2c(F)cccc2F)CC1 [compound 391, 3-amino-1-(2,6-difluorophenyl)carbonyl-5-(1-methylsulfonylpiperidin-4-yl)amino-1H-1,2,4-triazole]
IC50 [4]: > 20000 nM

CS(=O)(=O)N1CCC(Nc2nc(N)n(C(=O)c3c(F)cccc3F)n2)CC1 [compound 392, 5-amino-1-(2,6-difluorophenyl)carbonyl-3-(1-methylsulfonylpiperidin-4-yl)amino-1H-1,2,4-triazole]
IC50 [5]: > 20000 nM

CC(C)(C)Oc1ccc(C(=O)n2nc(NC3CCN(S(C)(=O)=O)CC3)nc2N)cc1 [compound 393, 5-amino-1-(4-(tert-butoxy)phenyl)carbonyl-3-(1-methylsulfonylpiperidin-4-yl)amino-1H-1,2,4-triazole]
IC50 [5]: > 20000 nM

CN(C)c1ccc(C(=O)n2nc(NC3CCN(S(C)(=O)=O)CC3)nc2N)cc1 [compound 395, 5-amino-1-(4-(dimethylamino)phenyl)carbonyl-3-(1-methylsulfonylpiperidin-4-yl)amino-1H-1,2,4-triazole]
IC50 [5]: > 20000 nM

CN(C)c1ccc(C(=O)n2nc(N)nc2NC2CCN(S(C)(=O)=O)CC2)cc1 [compound 396, 3-amino-1-(4-(dimethylamino)phenyl)carbonyl-5-(1-methylsulfonylpiperidin-4-yl)amino-1H-1,2,4-triazole]
IC50 [4]: > 20000 nM

CS(=O)(=O)N1CCC(Nc2nc(N)n(C(=O)c3ccc4c(c3)OCCO4)n2)CC1 [compound 397, 5-amino-1-(1,4-benzodioxan-6-yl)carbonyl-3-(1-methylsulfonylpiperidin-4-yl)amino-1H-1,2,4-triazole]
IC50 (Table 9, Hela cells, Axl antibody cross-linking stimulation, phospho-Akt chemiluminescence): > 20000 nM

CS(=O)(=O)N1CCC(Nc2nc(N)n(C(=O)c3ccc(N4CCOCC4)cc3)n2)CC1 [compound 399, 5-amino-1-(4-(morpholin-4-yl)phenyl)carbonyl-3-(1-methylsulfonylpiperidin-4-yl)amino-1H-1,2,4-triazole]
IC50 [5]: > 20000 nM

Nc1nc(Nc2ccc(OCCN3CCCC3)cc2)nn1C(=O)c1ccc(N2CCS(=O)(=O)CC2)cc1 [compound 400, 5-amino-1-(4-(1,1-dioxo-thiomorpholin-4-yl)phenyl)carbonyl-3-[4-[2-(pyrrolidin-1-yl)ethoxy]phenylamino]-1H-1,2,4-triazole]
IC50 [1]: < 1000 nM

Nc1nc(Nc2ccc(OCCN3CCCC3)cc2)nn1C(=O)c1ccc(N2CCCCC2)cc1 [compound 401, 5-amino-1-(4-(piperidin-1-yl)phenyl)carbonyl-3-[4-[2-(pyrrolidin-1-yl)ethoxy]phenylamino]-1H-1,2,4-triazole]
IC50 [1]: < 1000 nM

Nc1nc(Nc2ccc(OCCN3CCCC3)c(Cl)c2)nn1C(=O)c1cc(Cl)cc(Cl)c1 [compound 402, 5-amino-3-[3-chloro-4-[2-(pyrrolidin-1-yl)ethoxy]phenylamino]-1-(3,5-dichlorophenyl)carbonyl-1H-1,2,4-triazole]
IC50 [1]: > 20000 nM

CC(C)(C)Oc1ccc(C(=O)n2nc(Nc3ccc(OCCN4CCCC4)cc3)nc2N)cc1 [compound #1, 5-Amino-3-[4-[2-(pyrrolidin-1-yl)ethoxy]phenylamino]-1-(4-(tert-butoxy)phenyl)carbonyl-1H-1,2,4-triazole]
IC50 [1]: < 1000 nM

CN(C)c1ccc(C(=O)n2nc(Nc3ccc(OCCN4CCCCC4)cc3)nc2N)cc1 [compound #2, 5-Amino-1-(4-(dimethylamino)phenyl)carbonyl-3-[4-[2-(piperidin-1-yl)ethoxy]phenylamino]-1H-1,2,4-triazole]
IC50 [1]: < 1000 nM

Nc1nc(Nc2ccc(OCCN3CCCC3)cc2)nn1C(=O)c1ccc2[nH]ccc2c1 [compound #3, 5-Amino-1-(1H-indol-5-yl)carbonyl-3-[4-[2-(pyrrolidin-1-yl)ethoxy]phenylamino]-1H-1,2,4-triazole]
IC50 [2]: < 1000 nM

CN(C)c1ccc(C(=O)n2nc(Nc3ccc(OCCN4CCCC4)cc3)nc2N)cc1 [compound #4, 5-Amino-1-(4-(dimethylamino)phenyl)carbonyl-3-[4-[2-(pyrrolidin-1-yl)ethoxy]phenylamino]-1H-1,2,4-triazole]
IC50 [1]: < 1000 nM

Nc1nc(Nc2ccc(OCCN3CCCC3)cc2)nn1C(=O)c1ccc2cc[nH]c2c1 [compound #5, 5-Amino-1-(1H-indol-6-yl)carbonyl-3-[4-[2-(pyrrolidin-1-yl)ethoxy]phenylamino]-1H-1,2,4-triazole]
IC50 [2]: < 1000 nM

Nc1nc(Nc2ccc(OCCN3CCCC3)cc2)nn1C(=O)c1cc2ccccc2[nH]1 [compound #6, 5-Amino-1-(1H-indol-2-yl)carbonyl-3-[4-[2-(pyrrolidin-1-yl)ethoxy]phenylamino]-1H-1,2,4-triazole]
IC50 [2]: < 1000 nM

Nc1nc(Nc2ccc(OCCN3CCCC3)cc2)nn1C(=O)c1cccc(OC(F)(F)F)c1 [compound #7, 5-Amino-3-[4-[2-(pyrrolidin-1-yl)ethoxy]phenylamino]-1-(3-(trifluoromethoxy)phenyl)carbonyl-1H-1,2,4-triazole]
IC50 [1]: < 1000 nM

CN(C)c1ccc(C(=O)n2nc(Nc3ccc(OCCCN4CCCC4)cc3)nc2N)cc1 [compound #8, 5-Amino-1-(4-(dimethylamino)phenyl)carbonyl-3-[4-[3-(pyrrolidin-1-yl)propoxy]phenylamino]-1H-1,2,4-triazole]
IC50 [1]: < 1000 nM

Cc1cccc(C(=O)n2nc(Nc3ccc(OCCN4CCCC4)cc3)nc2N)c1 [compound #9, 5-Amino-1-(3-methylphenyl)carbonyl-3-[4-[2-(pyrrolidin-1-yl)ethoxy]phenylamino]-1H-1,2,4-triazole]
IC50 [1]: < 1000 nM

From patent US8389557B2, “Triazole derivatives useful as Axl inhibitors” (Rigel Pharmaceuticals, Inc., priority 2005, dated 2013)
